Ends that are not written are not given here.
How the values were obtained:
Dermal fibroblasts = assay: Synthesis of intracellular ATP (ATP Bioluminescence Assay Kit HS II); assay type: cell-based; conditions: 1% solution of a 50 ppm peptide solution, compared to untreated cells
Experimental: Protocol: This study was conducted using an ATP Bioluminescence Assay Kit HS II (Roche Applied Science). Dermal fibroblasts were treated with a 1% solution of a 50 ppm solution containing the SEQ ID No. 2 peptide, representative of the peptide family according to the invention, for a period of 1 to 3 hours. At the end of incubation, the tubes were rinsed with 2 ml of cold PBS before adding 250 μl of a lysis buffer provided in the kit. The cells of each tubes were then scraped up and collected in 14-ml tubes. Each tube was rinsed with 2×500 μl of cold PBS and the whole was collected again in the respective tubes. […] The ATP measurement was performed on these samples: 50 μl of this dilution was placed in a Luma cuvette and […]. After 10 seconds, the luminescence reading was begun. The values were standardized relative to the quantity of proteins for each sample. The measurements were made using the Biocounter M2010A Luma®/3M equipment.

cytochrome C = assay: Expression of cytochrome C by immunotransfer (Western Blot); assay type: cell-based; conditions: human dermal fibroblasts; 1% solution of a 50-ppm mother-solution; 72 hours
Experimental: The aim of this study was to determine the effect of the SEQ ID No. 2 peptide on the expression of cytochrome C. For this, the quantity of cytochrome C was evaluated by the immunotransfer (or Western Blot) technique.
Protocol: Human dermal fibroblasts were treated with a 1% solution of a 50-ppm SEQ ID No. 2 peptide mother-solution for 72 hours. The cells were then lysed and homogenized by sonication, then centrifuged for 10 minutes at 1000 g. The samples, standardized for their protein concentration (BCA measurement kit, Pierce) were subjected to electrophoresis on 4-12% bis-tris gel (Invitrogen). After electro-transfer, the membranes were incubated overnight with an anticytochrome C antibody, diluted to 1/500 (mouse monoclonal anti-cytochrome C, Tebu). A secondary antibody, coupled to the peroxidase and diluted to 1/5000 was then used (peroxidase conjugated F(ab′)2, goat antimouse, Immunotech). The chemiluminescent signal was then quantified using the Supersignal West Femto Trial kit and read in a reading chamber (MultiImage Light Cabinet, Immunotech Corporation).

cytochrome oxidase = assay: Enzymatic activity of cytochrome oxidase (Cytocox 1 kit) in treated fibroblasts; assay type: cell-based; conditions: normal human fibroblasts, 1% solution of a 50-ppm solution, compared with untreated cells
Experimental: The aim of this study was to determine the effect of the SEQ ID No. 2 peptide on mitochondrial activity. For this, the total enzymatic (mitochondrial) activity of cytochrome oxidase was measured.
Protocol: Normal human fibroblasts were treated with a 1% solution of a 50-ppm solution containing the SEQ ID No. 2 peptide, representative of the peptide family according to the invention, for 3 hours and 24 hours. The cells were collected, rinsed, and then lysed by sonication. A first centrifuging was performed to eliminate the principal cellular debris, and the supernatant was then centrifuged again at 10,000 g for 10 minutes. The enzymatic activity was measured in the supernatant and/or in the second residue, by a biochemical method using the Cytocox 1 kit (Sigma-Aldrich), then standardized for protein content (measured with the BCA kit, Pierce).

[1] = tested on: dermal fibroblast mitochondria; assay: Mitochondrial membrane potential, JC-1 marking, with or without H2O2 or UVB stress; assay type: cell-based, human
Experimental: The aim of this study was to determine the protective effect of the SEQ ID No. 2 peptide with respect to dermal fibroblast mitochondria subjected to an oxidative stress caused by oxygenated water (H2O2) or UVB irradiation. A marker for the membrane potential of mitochondria (JC-1) was used for this. JC-1 is a marker that emits different fluorescences depending on the level of polarization of the mitochondrial membrane.
Protocol: Human dermal fibroblasts were treated with a 1% solution of a 50-ppm SEQ ID No. 2 peptide mother-solution for 96 hours and then subjected to an oxidative stress caused by 2 mM of H2O2 for 30 min. or to UVB irradiation at 50 mJ/cm^2. Controls not treated with the peptide or H2O2 or not irradiated were performed under the same conditions. At the end of the experiment, the cells were washed, fixed, and subjected to marking with a 0.2 μg/ml solution of JC-1 (Molecular Probes®) in order to disclose the membrane potential of the mitochondria.

Tyr-Leu-Lys-Lys-Ala-NH2 (YLKKA-NH2) [SEQ ID No. 2]
increase in the amount of intracellular ATP (Dermal fibroblasts; after 3 hours): 27% | increase in the amount of intracellular ATP (Dermal fibroblasts; after one hour): 41% | expression of cytochrome C (cytochrome C): clear increase | increase in enzymatic activity of cytochrome oxidase (cytochrome oxidase; 24 hours after application): 750% | increase in enzymatic activity of cytochrome oxidase (cytochrome oxidase; after 3 hours): 150% | mitochondrial membrane potential (JC-1 red fluorescence) under stress ([1]; peptide for 96 hours, then 2 mM H2O2 for 30 min or UVB 50 mJ/cm^2): more marked red fluorescence | mitochondrial membrane potential (JC-1 red fluorescence) ([1]; unstressed human dermal fibroblasts, 1% solution of a 50-ppm mother-solution, 96 hours): elevated membrane potential, greater than in the control cells
